Data reported in the NIST ThermoML archive (doi:10.1016/j.jct.2018.01.015).

Test: xn = mol fraction of the nth substance listed
Conditions: Gas, rotating-body viscometer for gases

N#N [nitrogen] + O=C=O
Conditions | viscosity [mPa·s]
253.16 K, 203.1 kPa, x1 = 0.7498 | 0.01498
253.16 K, 399 kPa, x1 = 0.7498 | 0.01501
253.16 K, 601.1 kPa, x1 = 0.7498 | 0.01505
253.16 K, 797.1 kPa, x1 = 0.7498 | 0.01509
253.16 K, 998.4 kPa, x1 = 0.7498 | 0.01514
253.17 K, 100.3 kPa, x1 = 0.7498 | 0.01495
253.17 K, 108.1 kPa, x1 = 0.4996 | 0.01423
253.17 K, 200.4 kPa, x1 = 0.4996 | 0.01425
253.17 K, 398.3 kPa, x1 = 0.4996 | 0.01427
253.17 K, 596.2 kPa, x1 = 0.4996 | 0.01431
253.17 K, 798.8 kPa, x1 = 0.4996 | 0.01435
253.18 K, 110.4 kPa, x1 = 0.2479 | 0.01347
253.18 K, 203.7 kPa, x1 = 0.2479 | 0.01348
253.18 K, 396.3 kPa, x1 = 0.2479 | 0.01348
253.18 K, 605.2 kPa, x1 = 0.2479 | 0.01352
253.21 K, 100.8 kPa, x1 = 1 | 0.01561
253.21 K, 200.9 kPa, x1 = 1 | 0.01564
253.21 K, 400.7 kPa, x1 = 1 | 0.01566
253.21 K, 600.8 kPa, x1 = 1 | 0.01571
253.21 K, 800.8 kPa, x1 = 1 | 0.01574
253.21 K, 1000.9 kPa, x1 = 1 | 0.01579
253.21 K, 1200.9 kPa, x1 = 1 | 0.01584
273.19 K, 108.8 kPa, x1 = 0.7498 | 0.01597
273.19 K, 109.2 kPa, x1 = 0.4996 | 0.01525
273.19 K, 201 kPa, x1 = 0.7498 | 0.01599
273.19 K, 400.9 kPa, x1 = 0.4996 | 0.0153
273.19 K, 401.7 kPa, x1 = 0.7498 | 0.01602
273.19 K, 600.3 kPa, x1 = 0.7498 | 0.01605
273.19 K, 603.1 kPa, x1 = 0.4996 | 0.01533
273.19 K, 800.1 kPa, x1 = 0.4996 | 0.01537
273.19 K, 800.2 kPa, x1 = 0.7498 | 0.0161
273.19 K, 1000.1 kPa, x1 = 0.7498 | 0.01613
273.19 K, 1200.6 kPa, x1 = 0.7498 | 0.01619
273.2 K, 201.1 kPa, x1 = 0.2479 | 0.01448
273.2 K, 205.6 kPa, x1 = 0.4996 | 0.01527
273.2 K, 397.9 kPa, x1 = 0.2479 | 0.0145
273.2 K, 601.6 kPa, x1 = 0.2479 | 0.01453
273.2 K, 1004.5 kPa, x1 = 0.4996 | 0.01541
273.21 K, 108.1 kPa, x1 = 0.2479 | 0.01448
273.21 K, 793.9 kPa, x1 = 0.2479 | 0.01457
273.24 K, 100.7 kPa, x1 = 1 | 0.01659
273.24 K, 200.8 kPa, x1 = 1 | 0.01661
273.24 K, 400.5 kPa, x1 = 1 | 0.01664
273.24 K, 600.4 kPa, x1 = 1 | 0.01667
273.24 K, 800.6 kPa, x1 = 1 | 0.01671
273.24 K, 1000.6 kPa, x1 = 1 | 0.01674
273.24 K, 1499.8 kPa, x1 = 1 | 0.01685
298.19 K, 108.9 kPa, x1 = 0.7498 | 0.01719
298.19 K, 196.7 kPa, x1 = 0.7498 | 0.01721
298.19 K, 402.3 kPa, x1 = 0.7498 | 0.01724
298.19 K, 604.2 kPa, x1 = 0.7498 | 0.01727
298.19 K, 801 kPa, x1 = 0.7498 | 0.0173
298.19 K, 999.3 kPa, x1 = 0.7498 | 0.01734
298.19 K, 1498.4 kPa, x1 = 0.7498 | 0.01744
298.2 K, 202.6 kPa, x1 = 0.7498 | 0.0172
298.2 K, 390.5 kPa, x1 = 0.7498 | 0.01724
298.2 K, 599.6 kPa, x1 = 0.7498 | 0.01727
298.2 K, 807 kPa, x1 = 0.7498 | 0.0173
298.2 K, 1008.5 kPa, x1 = 0.7498 | 0.01734
298.2 K, 1501.4 kPa, x1 = 0.7498 | 0.01744
298.21 K, 108 kPa, x1 = 0.4996 | 0.0165
298.21 K, 108.7 kPa, x1 = 0.2479 | 0.01571
298.21 K, 109 kPa, x1 = 0.4996 | 0.01649
298.21 K, 109 kPa, x1 = 0.7498 | 0.01719
298.21 K, 201.9 kPa, x1 = 0.4996 | 0.01651
298.21 K, 204.7 kPa, x1 = 0.4996 | 0.0165
298.21 K, 205.2 kPa, x1 = 0.2479 | 0.01572
298.21 K, 395.1 kPa, x1 = 0.2479 | 0.01574
298.21 K, 399.1 kPa, x1 = 0.4996 | 0.01654
298.21 K, 402.3 kPa, x1 = 0.4996 | 0.01654
298.21 K, 593.4 kPa, x1 = 0.4996 | 0.01656
298.21 K, 602.9 kPa, x1 = 0.2479 | 0.01577
298.21 K, 603.8 kPa, x1 = 0.4996 | 0.01657
298.21 K, 800.9 kPa, x1 = 0.4996 | 0.0166
298.21 K, 803.6 kPa, x1 = 0.4996 | 0.01661
298.21 K, 807.6 kPa, x1 = 0.2479 | 0.01581
298.21 K, 1000 kPa, x1 = 0.4996 | 0.01664
298.21 K, 1002.4 kPa, x1 = 0.2479 | 0.01585
298.21 K, 1003.3 kPa, x1 = 0.4996 | 0.01664
298.21 K, 1202 kPa, x1 = 0.4996 | 0.0167
298.21 K, 1204.4 kPa, x1 = 0.4996 | 0.01669
298.22 K, 107.9 kPa, x1 = 0.2479 | 0.01571
298.22 K, 204.8 kPa, x1 = 0.2479 | 0.01572
298.22 K, 401.2 kPa, x1 = 0.2479 | 0.01575
298.22 K, 602.1 kPa, x1 = 0.2479 | 0.01578
298.22 K, 794.6 kPa, x1 = 0.2479 | 0.01581
298.22 K, 1003 kPa, x1 = 0.2479 | 0.01585
298.24 K, 800.5 kPa, x1 = 1 | 0.01785
298.25 K, 99.6 kPa, x1 = 1 | 0.01776
298.25 K, 100.7 kPa, x1 = 1 | 0.01777
298.25 K, 200.5 kPa, x1 = 1 | 0.01778
298.25 K, 400.7 kPa, x1 = 1 | 0.0178
298.25 K, 400.8 kPa, x1 = 1 | 0.0178
298.25 K, 600.2 kPa, x1 = 1 | 0.01783
298.25 K, 1000.1 kPa, x1 = 1 | 0.01789
298.25 K, 1500.2 kPa, x1 = 1 | 0.01799
323.2 K, 109.1 kPa, x1 = 0.7498 | 0.01837
323.2 K, 198.2 kPa, x1 = 0.7498 | 0.01838
323.2 K, 393.8 kPa, x1 = 0.7498 | 0.01841
323.2 K, 600.2 kPa, x1 = 0.7498 | 0.01844
323.2 K, 800.3 kPa, x1 = 0.7498 | 0.01847
323.2 K, 1000.9 kPa, x1 = 0.7498 | 0.0185
323.2 K, 1500.1 kPa, x1 = 0.7498 | 0.0186
323.22 K, 108.4 kPa, x1 = 0.2479 | 0.01691
323.22 K, 109.2 kPa, x1 = 0.4996 | 0.01769
323.22 K, 196.1 kPa, x1 = 0.2479 | 0.01693
